Measurements taken from ChEMBL document CHEMBL1201862, “PubChem BioAssay data set” (2004).
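How tested: cells in 96-well plates exposed to compound for 48 hours at five concentrations. GI50 = concentration required for 50% inhibition of growth.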 Activity calls are given as the source filed them. No stated cut-off is given here; in the data, active = GI50 up to about 1.1 µM and inactive = higher.

Legend:
Assay in all cases: NCI-60 cell line screen, 48 h
SF-268 = tested on: SF-268
MDA-N = tested on: MDA-N
MDA-MB-231 = tested on: MDA-MB-231
HOP-62 = tested on: HOP-62
SW-620 = tested on: SW-620
T47D = tested on: T47D
Hs-578T = tested on: Hs-578T
HT-29 = tested on: HT-29
UO-31 = tested on: UO-31
NCI-H460 = tested on: NCI-H460
SN12C = tested on: SN12C
A549 = tested on: A549
OVCAR-8 = tested on: OVCAR-8
Malme-3M = tested on: Malme-3M
EKVX = tested on: EKVX
MOLT-4 = tested on: MOLT-4
LOX IMVI = tested on: LOX IMVI
HL-60 = tested on: HL-60
SR = tested on: SR
CCRF-CEM = tested on: CCRF-CEM

SMILES	GI50 (SF-268)	GI50 (MDA-N)	GI50 (MDA-MB-231)	GI50 (HOP-62)	GI50 (SW-620)	GI50 (T47D)	GI50 (Hs-578T)	GI50 (HT-29)	GI50 (UO-31)	GI50 (NCI-H460)	GI50 (SN12C)	GI50 (A549)	GI50 (OVCAR-8)	GI50 (Malme-3M)	GI50 (EKVX)	GI50 (MOLT-4)	GI50 (LOX IMVI)	GI50 (HL-60)	GI50 (SR)	GI50 (CCRF-CEM)
Fc1cccc(F)c1C(Nc1nncs1)Nc1nncs1	> 100 µM (inactive)	38 µM (inactive)	> 100 µM (inactive)	> 100 µM (inactive)	86.7 µM (inactive)	> 100 µM (inactive)	> 100 µM (inactive)	47.2 µM (inactive)	> 100 µM (inactive)	> 100 µM (inactive)	> 100 µM (inactive)	> 100 µM (inactive)	> 100 µM (inactive)	> 100 µM (inactive)						
CC(C)=CCC[C@@H](C)c1c2nc3ccccc3sc-2c(C)c(=O)c1O	3.99 µM (inactive)		15.1 µM (inactive)	4.36 µM (inactive)	4.86 µM (inactive)	3.45 µM (inactive)	9.66 µM (inactive)	2.79 µM (inactive)	3.55 µM (inactive)	2.22 µM (inactive)	5.74 µM (inactive)	5.62 µM (inactive)	2.94 µM (inactive)	2.93 µM (inactive)	7.62 µM (inactive)	2.32 µM (inactive)	4.94 µM (inactive)	1.51 µM (inactive)	2.23 µM (inactive)	2.67 µM (inactive)
C[C@H](CCC1=NCCN1)[C@H]1CC[C@H]2[C@@H]3[C@H](O)C[C@@H]4C[C@H](O)CC[C@]4(C)[C@H]3CC[C@]12C	13.2 µM (inactive)	17.3 µM (inactive)	16.7 µM (inactive)	16.1 µM (inactive)	15.6 µM (inactive)	14.8 µM (inactive)	12.4 µM (inactive)	2.54 µM (inactive)	14.6 µM (inactive)	12 µM (inactive)	21.1 µM (inactive)		15.6 µM (inactive)	15.6 µM (inactive)	17.9 µM (inactive)	11.1 µM (inactive)	10.3 µM (inactive)	> 10 µM (inactive)		12.7 µM (inactive)
O=C1c2cc([N+](=O)[O-])cnc2S(=O)(=O)N1c1ccc(Oc2ccccc2)cc1			> 100 µM (inactive)	> 100 µM (inactive)	> 100 µM (inactive)	> 100 µM (inactive)	> 100 µM (inactive)		> 100 µM (inactive)	> 100 µM (inactive)	> 100 µM (inactive)	> 100 µM (inactive)	> 100 µM (inactive)	> 100 µM (inactive)	> 100 µM (inactive)	33 µM (inactive)	> 100 µM (inactive)	> 100 µM (inactive)	57 µM (inactive)	39 µM (inactive)
O=C1CC(=O)NC(NN2C(=O)/C(=C/c3ccccc3)N=C2c2ccccc2)=N1	> 100 µM (inactive)	> 100 µM (inactive)	> 100 µM (inactive)	> 100 µM (inactive)	> 100 µM (inactive)	> 100 µM (inactive)	> 100 µM (inactive)	> 100 µM (inactive)	32.9 µM (inactive)	> 100 µM (inactive)	> 100 µM (inactive)	> 100 µM (inactive)	> 100 µM (inactive)	> 100 µM (inactive)		> 100 µM (inactive)			> 100 µM (inactive)	> 100 µM (inactive)
CCCCOP(=O)(OCCCC)/C(C#N)=C/c1ccc(C)o1	63.4 µM (inactive)	36.9 µM (inactive)	> 100 µM (inactive)	> 100 µM (inactive)	95.9 µM (inactive)	51.5 µM (inactive)	57.4 µM (inactive)	45.6 µM (inactive)		61.5 µM (inactive)	56.1 µM (inactive)	47.2 µM (inactive)	53.6 µM (inactive)	29.6 µM (inactive)	40.6 µM (inactive)	63.4 µM (inactive)	59 µM (inactive)		51.6 µM (inactive)	
COc1cc(S(=O)(=O)Nc2nc(-c3ccc(N4C(=O)/C(=C/c5ccccc5)N=C4c4ccccc4)cc3)cs2)ccc1Cl	25 µM (inactive)	37.3 µM (inactive)	21.3 µM (inactive)	29 µM (inactive)	55.1 µM (inactive)	42.2 µM (inactive)	21 µM (inactive)	78.3 µM (inactive)	> 100 µM (inactive)	> 100 µM (inactive)	45 µM (inactive)	> 100 µM (inactive)	44.4 µM (inactive)	30.8 µM (inactive)		28.2 µM (inactive)	34.5 µM (inactive)		36.1 µM (inactive)	34.6 µM (inactive)
CCC1=CC2Cc3nc4cc(Cl)ccc4c(N)c3C(C1)C2 (centres undefined)	4.62 µM (inactive)	6.08 µM (inactive)	5.58 µM (inactive)	8.2 µM (inactive)	8.91 µM (inactive)	2.52 µM (inactive)	5.08 µM (inactive)	3.02 µM (inactive)	4.92 µM (inactive)	4.07 µM (inactive)	12.5 µM (inactive)	7.59 µM (inactive)	12.8 µM (inactive)	4.55 µM (inactive)	3.18 µM (inactive)	0.822 µM (active)	4.54 µM (inactive)	2.29 µM (inactive)		3.35 µM (inactive)
